Test results: PMC8406801, “Naringenin Inhibits Platelet Activation and Arterial Thrombosis Through Inhibition of Phosphoinositide 3-Kinase and Cyclic Nucleotide Signaling” (Frontiers in Pharmacology, 2021)
Several values for one entry are separate records, joined by “and”; a condition that tells them apart may be missing. Identical values can stand only once.

Columns and labels:
[1] = system: GSK3β Ser9 phosphorylation; assay: Immunoblotting of phospho-GSK3β (Ser9) in ADP-stimulated washed platelets; format: cell-based, rat; details: for p-GSK3β / t-GSK3β / p-GSK3β / t-GSK3β (Fold to ADP only): ADP 10 μmol/L, single replicates; for p-GSK3β / t-GSK3β: raw data
Protocol: (§1) For in vitro platelet aggregation, aliquots of washed platelets were preincubated with vehicle or various concentrations of naringenin for 5 min and stimulated with ADP (10 μmol/L) under stirring at 37°C for 5 min. For ex vivo platelet aggregation, PRP was incubated at 37°C for 5 min and stimulated with ADP (5 μmol/L) under stirring at 37 °C. The platelet aggregation was terminated by adding ethylenediaminetetraacetic acid (EDTA; 10 mM). Total protein was prepared using RIPA lysis buffer and protein content was determined by bicinchoninic acid (BCA) protein assay kit. Equal amounts of platelet proteins (30 μg) were separated on 10% SDS polyacrylamide gel electrophoresis (SDS-PAGE) and then transferred to poly vinylidene difluoride (PVDF) membranes and subjected to western blot. Blots were blocked with TBS-Tween 20 containing 5% BSA and probed with primary antibodies diluted in blocking solution at 4°C overnight followed by incubation with the corresponding HRP secondary antibodies. The protein bands were visualized using enhanced chemiluminescence (ECL).
(§2) FIGURE 4 Naringenin inhibits PI3K-mediated signaling in ADP-induced platelets. Washed rat platelets were preincubated without or with naringenin at 37°C for 5 min, and then stimulated with ADP (10 μmol/L) under stirring for 5 min. Platelet proteins were then extracted and analyzed by immunoblotting using PI3Kp110β antibody (A) and phospho-specific antibodies such as Akt^Ser473 (B), Akt^Thr308 (C), ERK1/2^Thr202/Tyr204 (D) and GSK3β^Ser9 (E). Total level of GAPDH was measured on each sample as a loading control. The blots shown are representative of three separate experiments. The relative protein expression levels were quantified by ImageJ 1.47v software. The level of relative protein expression obtained with vehicle control (0 μM) was taken as 1. R represents the level of relative protein expression in resting platelets. Data are expressed as means ± SD (n = 3). *p < 0.05, **p < 0.01, ***p < 0.001 compared with the vehicle control group.

[2] = system: integrin αIIbβ3 inside-out signaling (fibrinogen binding) in washed platelets; assay: ADP-stimulated fibrinogen binding (flow cytometry); format: cell-based, rat; details: ADP 10 μM; for Fibrinogen binding (%): single replicates; for fibrinogen binding: mean ± SD, n = 3, 55.67 ± 9.62% with ADP alone
Protocol: Flow cytometric assays were performed as described previously ([Wang et al., 2019]). ADP-stimulated P-selectin exposure and fibrinogen binding were determined in washed platelets. […] The platelets were immediately incubated with PE-labeled CD62P or FITC-labeled fibrinogen in the dark at room temperature for 15 min. The cells were finally fixed with 1% (v/v) paraformaldehyde prior to analysis using an Accuri C6 flow cytometer (BD Biosciences, United States).

[3] = system: Akt Thr308 phosphorylation; assay: Ex vivo immunoblotting of phospho-Akt (Thr308) in ADP-stimulated PRP of treated rats; parameters: species or system rat; details: for p-Akt Thr308 / t-Akt (Fold to Control) / p-Akt Thr308 / t-Akt (raw data): ex vivo, Figure 8D
Protocol: (§3) Male SD rats were randomly divided into 5 groups with 6 rats in each group. […] Sixty minutes after the last sample treatment, blood was drawn from the abdominal aorta of rats into the siliconized vacutainers containing 1:9 (v/v) 3.8% sodium citrate. The collected blood was centrifuged at 100 × g for 10 min at room temperature to obtain PRP. […] The platelet counts of PRP were adjusted to 4×10^8 cells/mL using PPP. PRP was incubated for 5 min at 37°C and then stimulated by ADP (5 μM). The maximum platelet aggregation rate was determined as mentioned above.
as §1
(§4) Blood was collected and PRP was obtained after the last treatment. Platelet aggregation was induced by ADP (5 μmol/L) (A). Data are expressed as means ± SD (n = 6). After ADP stimulation, platelet proteins were then extracted and analyzed by immunoblotting using PI3Kp110β antibody (B) and phospho-specific antibodies such as Akt^Ser473 (C), Akt^Thr308 (D) and ERK1/2^Thr202/Tyr204 (E). Total level of GAPDH was measured on each sample as a loading control. The blots shown are representative of three separate experiments. The relative protein expression levels were quantified by ImageJ 1.47v software. The level of relative protein expression obtained with vehicle control was taken as 1. R represents the level of relative protein expression in resting platelets. Data are expressed as means ± SD (n = 3). *p < 0.05, **p < 0.01, ***p < 0.001 compared with the vehicle control group (Con).
(§5) To further investigate the antiplatelet mechanisms of naringenin ex vivo, several signaling molecules such as PI3Kp110β, Akt and ERK were detected. After oral administration of naringenin (200, 400, and 800 mg/kg) to rats for 7 days, rat PRP was prepared and stimulated by ADP (5 μmol/L), and platelets were lysed to determine protein phosphorylation levels using western blot.

[4] = system: washed rat platelets; assay: ADP (5 μM)-stimulated aggregation of washed platelets (Figure S1); format: cell-based; details: 200, 400 and 800 μM similar efficacy
Source text: Platelet aggregation was induced by ADP using washed platelets and PRP. […]
(1 picture or pasted object on this page, not shown here)

[5] = system: ERK1/2 phosphorylation; assay: Immunoblotting of phospho-ERK1/2 (Thr202/Tyr204) in ADP-stimulated washed platelets; format: cell-based, rat; details: ADP 10 μmol/L, single replicates; for p-ERK1/2 / t-ERK: raw data
Protocol: as §1, §2

[6] = system: PRP; assay: Clot retraction; format: cell-based, rat; details: PRP, 200, 400, and 800 μM, thrombin 1 U/mL, 15 min
Protocol: PRP was incubated with vehicle or different concentrations of naringenin for 10 min at 37°C. Clot retraction was initiated by adding fibrinogen (400 μg/ml) and thrombin (1 U/mL), and allowed to proceed at 37°C. Images were taken 15 min later.

[7] = system: Akt Ser473 phosphorylation; assay: Ex vivo immunoblotting of phospho-Akt (Ser473) in ADP-stimulated PRP of treated rats; parameters: species or system rat; details: for p-Akt Ser473 / t-Akt (Fold to Control) / p-Akt Ser473 / t-Akt (raw data): ex vivo, Figure 8C
Protocol: as §3, §1, §4, §5

[8] = rats, oral 200, 400, and 800 mg/kg for 7 days, ADP 5 μmol/L

Compound: O=C1C[C@@H](c2ccc(O)cc2)Oc2cc(O)cc(O)c21 [Naringenin]
- p-GSK3β / t-GSK3β ([1]; 100 μM): 0.3609 and 0.3982 and 0.3384
- p-GSK3β / t-GSK3β (Fold to ADP only) ([1]; 100 μM): 0.5893 Fold to ADP only and 0.6502 Fold to ADP only and 0.5525 Fold to ADP only
- p-GSK3β / t-GSK3β ([1]; 200 μM): 0.4301 and 0.3431 and 0.4790
- p-GSK3β / t-GSK3β (Fold to ADP only) ([1]; 200 μM): 0.7022 Fold to ADP only and 0.5603 Fold to ADP only and 0.7821 Fold to ADP only
- p-GSK3β / t-GSK3β ([1]; 400 μM): 0.3379 and 0.5076 and 0.5137
- p-GSK3β / t-GSK3β (Fold to ADP only) ([1]; 400 μM): 0.5517 Fold to ADP only and 0.8288 Fold to ADP only and 0.8388 Fold to ADP only
- p-GSK3β / t-GSK3β ([1]; 800 μM): 0.4062 and 0.4495 and 0.5157
- p-GSK3β / t-GSK3β (Fold to ADP only) ([1]; 800 μM): 0.6632 Fold to ADP only and 0.7339 Fold to ADP only and 0.8420 Fold to ADP only
- influence on GSK3β phosphorylation ([1]; ADP-induced platelets): no influence
- Fibrinogen binding (%) ([2]; 200 μM): 42.78% and 35.40% and 54.20%
- fibrinogen binding ([2]; 400 μM): 31.74 ± 5.85%
- Fibrinogen binding (%) ([2]; 400 μM): 31.71% and 25.90% and 37.60%
- fibrinogen binding ([2]; 800 μM): 20.48 ± 4.63%
- Fibrinogen binding (%) ([2]; 800 μM): 21.04% and 15.60% and 24.80%
- p-Akt Thr308 / t-Akt (Fold to Control) ([3]; naringenin 200mg/kg): 0.5157 and 0.5526 and 0.5291
- p-Akt Thr308 / t-Akt (raw data) ([3]; naringenin 200mg/kg): 0.4340 and 0.4650 and 0.4452
- p-Akt Thr308 / t-Akt (Fold to Control) ([3]; naringenin 400mg/kg): 0.3273 and 0.3649 and 0.3395
- p-Akt Thr308 / t-Akt (raw data) ([3]; naringenin 400mg/kg): 0.2755 and 0.3071 and 0.2857
- p-Akt Thr308 / t-Akt (Fold to Control) ([3]; naringenin 800mg/kg): 0.3636 and 0.3541 and 0.3985
- p-Akt Thr308 / t-Akt (raw data) ([3]; naringenin 800mg/kg): 0.3060 and 0.2979 and 0.3354
- phosphorylation of Akt at Thr308 in rat PRP ex vivo [3, 8]: significantly suppressed
- effect on ADP (5 μM)-stimulated platelet aggregation [4]: significant levels of inhibition
- p-ERK1/2 / t-ERK ([5]; 100 μM): 0.3358 and 0.4551 and 0.3494
- p-ERK1/2 / t-ERK (Fold to ADP only) ([5]; 100 μM): 0.4798 Fold to ADP only and 0.6502 Fold to ADP only and 0.4991 Fold to ADP only
- p-ERK1/2 / t-ERK ([5]; 200 μM): 0.2390 and 0.3446 and 0.2653
- p-ERK1/2 / t-ERK (Fold to ADP only) ([5]; 200 μM): 0.3414 Fold to ADP only and 0.4923 Fold to ADP only and 0.3790 Fold to ADP only
- p-ERK1/2 / t-ERK ([5]; 400 μM): 0.0291 and 0.2751 and 0.1193
- p-ERK1/2 / t-ERK (Fold to ADP only) ([5]; 400 μM): 0.0416 Fold to ADP only and 0.3930 Fold to ADP only and 0.1704 Fold to ADP only
- p-ERK1/2 / t-ERK ([5]; 800 μM): 0.0106 and 0.1491 and 0.1406
- p-ERK1/2 / t-ERK (Fold to ADP only) ([5]; 800 μM): 0.0152 Fold to ADP only and 0.2129 Fold to ADP only and 0.2008 Fold to ADP only
- clot retraction [6]: significantly reduced
- p-Akt Ser473 / t-Akt (Fold to Control) ([7]; naringenin 200mg/kg): 0.3581 and 0.2265 and 0.3338
- p-Akt Ser473 / t-Akt (raw data) ([7]; naringenin 200mg/kg): 0.3980 and 0.2517 and 0.3710
- p-Akt Ser473 / t-Akt (Fold to Control) ([7]; naringenin 400mg/kg): 0.1353 and 0.0873 and 0.1300
- p-Akt Ser473 / t-Akt (raw data) ([7]; naringenin 400mg/kg): 0.1504 and 0.0970 and 0.1445
- p-Akt Ser473 / t-Akt (Fold to Control) ([7]; naringenin 800mg/kg): 0.1415 and 0.0868 and 0.1240
- p-Akt Ser473 / t-Akt (raw data) ([7]; naringenin 800mg/kg): 0.1573 and 0.0965 and 0.1378
- phosphorylation of Akt at Ser473 in rat PRP ex vivo [7, 8]: significantly suppressed
